The compounds below were run against T1, Phospholipase A2, membrane associated (Homo sapiens, UniProt P14555) (assay: Compound was tested for in vitro activity against S-phospholipase A2 (s-PLA2) isolated from human platelets).
T1 sequence (P14555 whole entry): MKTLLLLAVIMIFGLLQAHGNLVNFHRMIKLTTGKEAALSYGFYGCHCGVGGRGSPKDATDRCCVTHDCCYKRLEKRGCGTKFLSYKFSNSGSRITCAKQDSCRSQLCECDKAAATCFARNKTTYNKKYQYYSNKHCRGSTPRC

In order of falling IC50:
1. CCCCCC/C=C/CC(=O)N[C@H](CCC(=O)O)CSc1ccc2ccccc2c1  12 µM
2. CCCCCC/C=C/CC(=O)N[C@H](CSc1ccc(Cc2ccccc2)cc1)CC(=O)O  3.8 µM
3. CCCCCC/C=C/CC(=O)N[C@@H](CCC(=O)O)CSc1ccc2ccccc2c1  1.85 µM
4. O=C(O)C[C@@H](CSc1ccc(Cc2ccccc2)cc1)NC(=O)CCCCCCc1ccccc1  0.065 µM

From ChEMBL document CHEMBL1127334, “Discovery of new non-phospholipid inhibitors of the secretory phospholipases A2” (J Med Chem, 1994)
